Assay results published in patent US9181264B2, “Fused heteroaryls and their uses” (Hutchison MediPharma Limited, priority 2011, dated 2015).

target: T1, PI3Kα kinase (Homo sapiens, UniProt P42336); experiment: PI3Ka Transcreener ADP assay (fluorescence polarization); type: biochemical; conditions: 10 μM ATP, 30 μmol/L lipid substrate; read-out: IC50, inhibition of PI3Kα kinase
T1 construct: purchased Invitrogen PV4788
Method: Fluorescence polarization was used in this assay. The final conditions for kinase assay are 10 μM of ATP, 0.2 ng/μL of PI3Kα kinase, 30 μmol/L of lipid substrate and assay buffer (50 mmol/L of HEPES (pH 7.5), 100 mmol/L of NaCl, 1 mmol/L of EGTA, 3 mmol/L of MgCl2, 1 mmol/L of DTT and 0.03% CHAPS and 2% DMSO).
5 μL of test compounds in 10% DMSO and 10 μL of 0.5 ng/μL PI3K kinase (Invitrogen, PV4788) in assay buffer are put into a 96-well plate (Greiner, Cat. 675076), and then the reaction is started by the addition of 10 μL of 75 μmol/L PIP2, (PS Lipid Substrate Invitrogen, PV5100), and 25 μmol/L ATP mixture. After the mixture is incubated for 60 minutes at room temperature, 25 μL of transcreener Kinase Kit reagent—ADP Detection Mix—(Bellbrook Labs) is added, and the reaction is continued for an additional 1.5 hours. At the end, the plate is read in a Tecan Infinite F500 at excitation of 610 nm and emission of 670 nm.
A standard curve for ADP is obtained in a parallel way by replacing compound and PI3Kα kinase with DMSO and assay buffer, respectively. Different concentration of ADP, 0-10 μM, and ATP, 10-0 μM (ATP+ADP equal to 10 μM) are applied instead of a fixed concentration of ATP in this standard curve assay. Other conditions are the same as described above. The standard curve is plotted using Origin 8.0 software. The inhibition of test compound on ADP production is calculated based on ADP concentration from standard curve. IC50 is obtained using XLfit 2.0 software.

T1 sequence (P42336 whole entry): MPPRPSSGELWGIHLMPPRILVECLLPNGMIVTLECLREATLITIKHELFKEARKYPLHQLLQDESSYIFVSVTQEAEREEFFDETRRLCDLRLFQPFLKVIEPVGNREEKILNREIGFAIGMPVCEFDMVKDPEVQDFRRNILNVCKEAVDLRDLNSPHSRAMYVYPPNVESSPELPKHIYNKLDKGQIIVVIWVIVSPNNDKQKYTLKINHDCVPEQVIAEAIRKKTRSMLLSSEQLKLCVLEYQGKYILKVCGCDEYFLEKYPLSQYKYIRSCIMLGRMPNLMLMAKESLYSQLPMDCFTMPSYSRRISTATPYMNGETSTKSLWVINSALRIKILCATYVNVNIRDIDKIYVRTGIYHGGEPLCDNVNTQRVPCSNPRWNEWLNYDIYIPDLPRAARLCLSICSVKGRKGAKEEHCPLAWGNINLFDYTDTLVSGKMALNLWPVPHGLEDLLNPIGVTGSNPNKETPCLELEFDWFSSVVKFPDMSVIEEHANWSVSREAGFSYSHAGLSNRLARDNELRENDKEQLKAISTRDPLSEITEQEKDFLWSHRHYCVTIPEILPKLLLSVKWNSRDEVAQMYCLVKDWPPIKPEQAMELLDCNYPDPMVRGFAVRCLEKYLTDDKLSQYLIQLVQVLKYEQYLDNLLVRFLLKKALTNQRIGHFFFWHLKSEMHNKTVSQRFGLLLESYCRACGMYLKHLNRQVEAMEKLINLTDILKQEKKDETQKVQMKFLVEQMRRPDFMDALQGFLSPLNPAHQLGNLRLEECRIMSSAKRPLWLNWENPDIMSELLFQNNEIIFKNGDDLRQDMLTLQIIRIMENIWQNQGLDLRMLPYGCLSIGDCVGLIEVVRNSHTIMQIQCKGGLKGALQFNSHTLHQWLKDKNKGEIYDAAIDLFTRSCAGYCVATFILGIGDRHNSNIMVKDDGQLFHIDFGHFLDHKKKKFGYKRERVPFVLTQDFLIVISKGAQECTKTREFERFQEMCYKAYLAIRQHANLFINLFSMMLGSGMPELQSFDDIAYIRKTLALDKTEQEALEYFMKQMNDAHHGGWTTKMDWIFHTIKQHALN
T1 sequence (P27986 whole entry partner): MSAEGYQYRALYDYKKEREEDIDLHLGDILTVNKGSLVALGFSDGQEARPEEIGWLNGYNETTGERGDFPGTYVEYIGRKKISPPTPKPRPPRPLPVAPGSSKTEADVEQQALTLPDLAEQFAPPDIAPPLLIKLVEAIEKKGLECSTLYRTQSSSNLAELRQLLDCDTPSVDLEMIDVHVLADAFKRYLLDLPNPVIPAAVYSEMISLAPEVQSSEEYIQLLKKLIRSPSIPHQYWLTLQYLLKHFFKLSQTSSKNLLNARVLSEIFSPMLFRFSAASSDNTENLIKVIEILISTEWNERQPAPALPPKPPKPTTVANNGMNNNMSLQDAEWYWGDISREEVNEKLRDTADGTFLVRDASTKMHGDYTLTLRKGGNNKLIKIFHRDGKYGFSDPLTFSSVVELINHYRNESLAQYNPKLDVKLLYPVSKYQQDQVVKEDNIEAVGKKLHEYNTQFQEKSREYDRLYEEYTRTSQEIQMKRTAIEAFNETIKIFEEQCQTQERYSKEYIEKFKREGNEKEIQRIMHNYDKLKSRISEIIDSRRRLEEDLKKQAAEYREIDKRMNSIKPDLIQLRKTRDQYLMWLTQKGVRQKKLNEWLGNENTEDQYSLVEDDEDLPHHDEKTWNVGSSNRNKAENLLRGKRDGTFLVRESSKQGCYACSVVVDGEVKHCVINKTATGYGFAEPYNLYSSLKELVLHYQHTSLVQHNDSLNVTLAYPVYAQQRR

IC50, < 100 nM:
COc1cc(-c2ccc3ncc4ncn(-c5ccc(C(C)(C)C#N)nc5)c4c3n2)cnc1N [Compound 95]
Nc1ncc(-c2ccc3ncc4ncn(C5CCN(CC(=O)N6CCOCC6)CC5)c4c3n2)cc1C(F)(F)F [Compound 97]
COc1cc(-c2ccc3ncc4ncn(C5CCN(CC(=O)N(C)C)CC5)c4c3n2)cnc1OC [Compound 99]
Cc1ccc(-c2ccc3ncc4ncn(C5CCN(CC(=O)N(C)C)CC5)c4c3n2)cn1 [Compound 100]
CCNC(=O)N1CCC(n2cnc3cnc4ccc(-c5cnc(N)c(C(F)(F)F)c5)nc4c32)CC1 [Compound 101]
CC(C)(C#N)c1ccc(-n2cnc3cnc4ccc(-c5cnc(N)c(C(F)(F)F)c5)nc4c32)cc1 [Compound 104]
CCOc1cc(-c2ccc3ncc4ncn(-c5ccc(C(C)(C)C#N)nc5)c4c3n2)cnc1N [Compound 108]
Nc1ncc(-c2ccc3ncc4ncn(CCN5CCOCC5)c4c3n2)cc1C(F)(F)F [Compound 109]
C[C@@H](O)C(=O)N1CCC(n2cnc3cnc4ccc(-c5cnc(N)c(C(F)(F)F)c5)nc4c32)CC1 [Compound 110]
Nc1ncc(-c2ccc3ncc4ncn(CCN5CCCC5)c4c3n2)cc1C(F)(F)F [Compound 111]
C#Cc1cc(-c2ccc3ncc4ncn(C5CCN(C(=O)C6CC6)CC5)c4c3n2)cnc1N [Compound 112]
Cc1ccc(-c2ccc3ncc4ncn(C5CCN(C(=O)[C@H](C)O)CC5)c4c3n2)cn1 [Compound 113]
Cc1nc2cnc3ccc(-c4cnc(N)c(C(F)(F)F)c4)nc3c2n1C1CCN(CC(=O)N2CCOCC2)CC1 [Compound 124]
Cc1nc2cnc3ccc(-c4cnc(N)c(C(F)(F)F)c4)nc3c2n1C1CCN(CC(=O)N2CCCC2)CC1 [Compound 125]
Cc1nc2cnc3ccc(-c4cnc(N)c(C(F)(F)F)c4)nc3c2n1C1CCN(C(=O)[C@@H](C)O)CC1 [Compound 126]
Cc1ccc(-c2ccc3ncc4nc(C)n(C5CCN(C(=O)[C@H](C)O)CC5)c4c3n2)cn1 [Compound 127]
Cc1nc2cnc3ccc(-c4cnc(N)c(C(F)(F)F)c4)nc3c2n1C1CCN(Cc2ccccn2)CC1 [Compound 128]
COCCN1CCC(n2c(C)nc3cnc4ccc(-c5cnc(N)c(C(F)(F)F)c5)nc4c32)CC1 [Compound 130]
Cc1nc2cnc3ccc(-c4cnc(N)c(C(F)(F)F)c4)nc3c2n1C1CCN(C(=O)c2ccccn2)CC1 [Compound 132]
Cc1nc2cnc3ccc(-c4cnc(N)c(C(F)(F)F)c4)nc3c2n1C1CCOCC1 [Compound 133]
Cc1nc2cnc3ccc(-c4cnc5[nH]ncc5c4)nc3c2n1C1CCOCC1 [Compound 134]
Cc1nc2cnc3ccc(-c4cnc5[nH]ccc5c4)nc3c2n1C1CCOCC1 [Compound 135]
Cc1cc(-c2ccc3ncc4nc(C)n(C5CCC(N6CCOCC6)CC5)c4c3n2)cnc1N (stereo not drawn) [Compound 136]
Cc1nc2cnc3ccc(-c4cnc(N)c(C(F)(F)F)c4)nc3c2n1C1CCC(N2CCOCC2)CC1 (stereo not drawn) [Compound 137]
Cc1nc2cnc3ccc(-c4cnc(N)c(C(F)(F)F)c4)nc3c2n1C1CCN(S(C)(=O)=O)CC1 [Compound 138]
COc1ncc(-c2ccc3ncc4nc(C)n(C5CCN(S(C)(=O)=O)CC5)c4c3n2)cn1 [Compound 139]
C=CC(=O)N1CCC(n2c(C)nc3cnc4ccc(-c5cnc(N)c(C(F)(F)F)c5)nc4c32)CC1 [Compound 140]
Cc1nc2cnc3ccc(-c4cnc(N)c(C(F)(F)F)c4)nc3c2n1CCCN1CCOCC1 [Compound 142]
COc1ncc(-c2ccc3ncc4nc(C)n(C5CCN(C(=O)C6CC6)CC5)c4c3n2)cc1C(F)(F)F [Compound 143]
CC#CC(=O)N1CCC(n2c(C)nc3cnc4ccc(-c5cnc(N)c(C(F)(F)F)c5)nc4c32)CC1 [Compound 144]
C/C=C/C(=O)N1CCC(n2c(C)nc3cnc4ccc(-c5cnc(N)c(C(F)(F)F)c5)nc4c32)CC1 [Compound 145]
COc1ncc(-c2ccc3ncc4nnc(C)n4c3c2)cc1NS(C)(=O)=O [Compound 150]
COc1ncc(-c2ccc3ncc4nncn4c3c2)cc1NS(=O)(=O)c1ccc(F)cc1F [Compound 161]
COc1ncc(-c2ccc3ncc4nnc(C5CC5)n4c3c2)cc1NS(=O)(=O)c1ccc(F)cc1F [Compound 162]
COc1ncc(-c2ccc3ncc4n[nH]c(=O)n4c3c2)cc1NS(=O)(=O)c1ccc(F)cc1F [Compound 163]
CCS(=O)(=O)Nc1cc(-c2ccc3ncc4nnc(C)n4c3c2)cnc1OC [Compound 164]
COc1ncc(-c2ccc3ncc4nnc(C(=O)N5CCCC5)n4c3c2)cc1NS(=O)(=O)C1CC1 [Compound 167]
COc1ncc(-c2ccc3ncc4nnc(C(=O)N(C)C)n4c3c2)cc1NS(=O)(=O)C1CC1 [Compound 168]
COc1ncc(-c2ccc3ncc4nnc(C(=O)N(C)C)n4c3c2)cc1NS(=O)(=O)c1ccccc1 [Compound 169]
COCc1nnc2cnc3ccc(-c4cnc(OC)c(NS(=O)(=O)C5CC5)c4)cc3n12 [Compound 170]
COc1ncc(-c2ccc3ncc4nnc(CCN5CCOCC5)n4c3c2)cc1NS(C)(=O)=O [Compound 171]
COc1ncc(-c2ccc3ncc4nnc(CN5CCOCC5)n4c3c2)cc1NS(C)(=O)=O [Compound 172]
COc1ncc(-c2ccc3ncc4nccn4c3c2)cc1NS(=O)(=O)c1ccc(F)cc1F [Compound 173]
COc1ncc(-c2ccc3ncc4nnc(CN5CCCC5)n4c3c2)cc1NS(C)(=O)=O [Compound 174]
COc1ncc(-c2ccc3ncc4nnc(CN5CCCC5)n4c3c2)cc1NS(=O)(=O)c1ccccc1 [Compound 175]
COc1ncc(-c2ccc3ncc4nccn4c3c2)cc1NS(=O)(=O)C(F)(F)F [Compound 176]
COc1ncc(-c2ccc3ncc4ncn(CCN5CCOCC5)c4c3n2)cc1NS(C)(=O)=O [Compound 177]
COc1ncc(-c2ccc3ncc4nnc(C)n4c3c2)cc1NS(=O)(=O)c1ccc(C)cc1 [Compound 179, N-(2-methoxy-5-(1-methyl-[1,2,4]triazolo[4,3-a]quinoxalin-8-yl)pyridin-3-yl)-4-methylbenzenesulfonamide]
COc1ncc(-c2ccc3ncc4nnc(C)n4c3c2)cc1NS(=O)(=O)c1ccc(F)cc1 [Compound 182]
CC(C)(C#N)c1ccc(-n2cnc3nnc4ccc(-c5cnc(N)c(C(F)(F)F)c5)cc4c32)cc1 [Compound 183, 2-(4-(8-(6-amino-5-(trifluoromethyl)pyridin-3-yl)-1H-imidazo[4,5-c]cinnolin-1-yl)phenyl)-2-methylpropanenitrile]
Cc1nc2nnc3ccc(-c4cnc(N)c(C(F)(F)F)c4)cc3c2n1-c1ccc(C(C)(C)C#N)cc1 [Compound 184]
